# Assay results published in patent publication US20230265151A1, “GIP/GLP1 CO-AGONIST COMPOUNDS” (priority 2020, published 2023).
# Like-named read-outs stand apart in the source and are kept apart here.
# Tests used:
# [1] = target: T1, human Gcg receptor (hGcgR) (Homo sapiens, UniProt P47871); test: [125I]-Glucagon binding, SPA with membranes of HEK293 cells expressing hGcgR; conditions: human GcgR; geometric mean (SEM, n); read-out: Binding Affinity Ki, nM (SEM, n) hGCGR
# T1 construct: expressed in transfected cells; crude membranes
# [2] = target: T2, hGIPR (Homo sapiens, UniProt P48546); test: Functional cAMP formation (HTRF) in HEK-293 clonal cells expressing hGIPR, 0.1% bovine casein, without or with 1.0% human serum albumin; assay type: cell-based; conditions: for Emax: read-out: hGIPR Emax, % ± SEM; for EC50: geometric mean, read-out: hGIPR EC50, nM (SEM, n)
# T2 construct: expressed in transfected cells
# T2 sequence (P48546 22-466): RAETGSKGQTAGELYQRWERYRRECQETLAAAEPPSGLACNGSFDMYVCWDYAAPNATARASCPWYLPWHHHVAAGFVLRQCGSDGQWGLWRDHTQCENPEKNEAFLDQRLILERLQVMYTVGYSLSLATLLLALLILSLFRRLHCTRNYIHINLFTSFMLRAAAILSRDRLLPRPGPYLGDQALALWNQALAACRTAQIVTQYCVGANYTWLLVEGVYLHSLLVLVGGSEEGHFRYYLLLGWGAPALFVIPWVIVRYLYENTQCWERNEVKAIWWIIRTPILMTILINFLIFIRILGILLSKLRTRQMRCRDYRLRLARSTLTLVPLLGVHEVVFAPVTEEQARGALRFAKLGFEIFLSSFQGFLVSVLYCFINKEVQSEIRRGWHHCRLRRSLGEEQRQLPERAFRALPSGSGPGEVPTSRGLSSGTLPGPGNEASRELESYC
# Procedure, shortened: (§1)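 Cells were stimulated with peptide for 30 min at 37° C, then intracellular cAMP was measured by competitive HTRF (665/620 nm ratio) and converted to nM using a cAMP standard curve. Relative EC50 and Emax came from four-parameter logistic fits of percent maximal response against peptide concentration.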
# [3] = target: T3, hGCGR (Homo sapiens, UniProt P47871); test: Functional cAMP formation (HTRF) in HEK-293 clonal cells expressing hGCGR, 0.1% bovine casein, without or with 1.0% human serum albumin; assay type: cell-based; conditions: geometric mean, read-out: hGCGR EC50, nM (SEM, n)
# T3 construct: expressed in transfected cells
# Procedure, shortened: as §1
# [4] = target: hGLP-1R (Homo sapiens, UniProt P43220); test: Functional cAMP formation (HTRF) in HEK-293 clonal cells expressing hGLP-1R, 0.1% bovine casein, without or with 1.0% human serum albumin; assay type: cell-based; set-up: expressed in transfected cells; conditions: 37° C.; for EC50: 0.1% bovine casein and 1.0% human serum albumin, geometric mean, read-out: hGLP-1R EC50, nM (SEM, n); for Emax: read-out: hGLP-1R Emax, % ± SEM
# Procedure, shortened: as §1
# [5] = HEK293, 0.1% bovine casein and 1.0% human serum albumin, 37° C., percent of maximal response to GIP(1-42)NH2
# [6] = HEK293, percent of maximal response to GIP(1-42)NH2, 37° C., 0.1% bovine casein, arithmetic mean
# [7] = cAMP, incubated at 37° C., 0.1% bovine casein (no human serum albumin)
# [8] = 0.1% bovine casein and 1.0% human serum albumin, 37° C.
# [9] = HEK293, percent of maximal response to GLP-1(7-36)NH2, 0.1% bovine casein, arithmetic mean
# [10] = HEK293, 0.1% bovine casein and 1.0% human serum albumin, percent of maximal response to GLP-1(7-36)NH2
# T1 sequence (P47871 26-477): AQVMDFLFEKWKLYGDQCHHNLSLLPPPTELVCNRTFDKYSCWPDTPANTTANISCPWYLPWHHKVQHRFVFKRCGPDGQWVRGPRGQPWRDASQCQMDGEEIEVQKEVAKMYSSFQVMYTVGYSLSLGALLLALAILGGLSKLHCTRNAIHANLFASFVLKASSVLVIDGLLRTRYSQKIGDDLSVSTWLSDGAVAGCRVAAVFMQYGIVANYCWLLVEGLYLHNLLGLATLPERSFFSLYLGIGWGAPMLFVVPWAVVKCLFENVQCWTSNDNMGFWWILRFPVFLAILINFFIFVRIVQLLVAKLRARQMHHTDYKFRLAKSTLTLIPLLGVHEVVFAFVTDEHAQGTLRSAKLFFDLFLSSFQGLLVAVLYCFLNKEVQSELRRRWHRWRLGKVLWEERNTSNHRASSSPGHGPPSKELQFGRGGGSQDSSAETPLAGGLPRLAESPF
# T3 sequence (P47871 26-477): as above
# hGLP-1R, sequence (P43220 24-463): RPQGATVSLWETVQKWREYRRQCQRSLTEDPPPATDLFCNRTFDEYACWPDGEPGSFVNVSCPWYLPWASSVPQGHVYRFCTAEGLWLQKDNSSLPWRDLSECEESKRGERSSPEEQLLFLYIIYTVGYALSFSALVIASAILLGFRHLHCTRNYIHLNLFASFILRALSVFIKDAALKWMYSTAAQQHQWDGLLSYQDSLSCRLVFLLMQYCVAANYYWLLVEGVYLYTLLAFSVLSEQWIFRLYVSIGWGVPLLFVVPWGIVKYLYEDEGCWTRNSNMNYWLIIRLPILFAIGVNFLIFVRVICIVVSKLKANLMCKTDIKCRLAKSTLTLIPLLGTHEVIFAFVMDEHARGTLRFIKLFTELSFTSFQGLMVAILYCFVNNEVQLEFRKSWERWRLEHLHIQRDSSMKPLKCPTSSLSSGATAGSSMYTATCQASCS
SMILES,Ki [1] [nM],"Emax [2, 5] [%]","Emax [2, 6] [%]","EC50 [2, 7] [nM]","EC50 [3, 8] [nM]","EC50 [3, 7] [nM]",EC50 [4] [nM],"Emax [4, 9] [%]","EC50 [2, 8] [nM]","Emax [4, 10] [%]"
CC[C@H](C)[C@H](NC(=O)[C@H](CCCN)NC(=O)[C@H](CC(=O)O)NC(=O)[C@H](CC(C)C)NC(=O)[C@](C)(CC(C)C)NC(=O)[C@@H](NC(=O)[C@H](CO)NC(=O)[C@H](Cc1ccncc1)NC(=O)[C@H](CC(=O)O)NC(=O)[C@H](CO)NC(=O)[C@@H](NC(=O)[C@](C)(Cc1ccccc1F)NC(=O)[C@@H](NC(=O)CNC(=O)[C@H](CCC(=O)O)NC(=O)C(C)(C)NC(=O)[C@@H](N)Cc1ccc(O)cc1)[C@@H](C)O)[C@@H](C)O)[C@@H](C)CC)C(=O)N[C@@H](C)C(=O)N[C@@H](CCC(N)=O)C(=O)NC(C)(C)C(=O)N[C@@H](CCC(=O)O)C(=O)N[C@@H](Cc1ccccc1)C(=O)N[C@H](C(=O)N[C@@H](CCCCNC(=O)COCCOCCNC(=O)COCCOCCNC(=O)CC[C@H](NC(=O)CCCCCCCCCCCCC(=O)O)C(=O)O)C(=O)N[C@@](C)(Cc1ccc(O)cc1)C(=O)N[C@@H](CC(C)C)C(=O)N[C@H](C(=O)N[C@@H](CCCCNC(=O)COCCOCCNC(=O)COCCOCCNC(=O)CC[C@H](NC(=O)CCCCCCCCCCCCC(=O)O)C(=O)O)C(=O)NCC(=O)NCC(=O)N1CCC[C@H]1C(=O)N[C@@H](CO)C(=O)N[C@@H](CO)C(=O)NCC(=O)N[C@@H](C)C(=O)N1CCC[C@H]1C(=O)N1CCC[C@H]1C(=O)N1CCC[C@H]1C(=O)N[C@@H](CO)C(N)=O)[C@@H](C)CC)[C@@H](C)CC [Example 70],151,89.9 ± 0.987,89.1 ± 2.3,0.0182,> 9950,> 9950,27,100 ± 3.11,,
CC[C@H](C)[C@H](NC(=O)[C@H](CC(C)C)NC(=O)[C@](C)(Cc1ccc(O)cc1)NC(=O)[C@@H](CCC(=O)O)NC(=O)[C@@H](NC(=O)[C@H](Cc1ccccc1)NC(=O)[C@H](CCC(=O)O)NC(=O)C(C)(C)NC(=O)[C@H](CCC(N)=O)NC(=O)[C@H](C)NC(=O)[C@H](CCCCNC(=O)COCCOCCNC(=O)COCCOCCNC(=O)CC[C@H](NC(=O)CCCCCCCCCCCCC(=O)O)C(=O)O)NC(=O)[C@H](CCCN)NC(=O)[C@H](CC(=O)O)NC(=O)[C@H](CC(C)C)NC(=O)[C@](C)(CC(C)C)NC(=O)[C@@H](NC(=O)[C@H](CO)NC(=O)[C@H](Cc1ccncc1)NC(=O)[C@H](CC(=O)O)NC(=O)[C@H](CO)NC(=O)[C@@H](NC(=O)[C@](C)(Cc1ccccc1)NC(=O)[C@@H](NC(=O)CNC(=O)[C@H](CCC(=O)O)NC(=O)C(C)(C)NC(=O)[C@@H](N)Cc1ccc(O)cc1)[C@@H](C)O)[C@@H](C)O)[C@@H](C)CC)[C@@H](C)CC)C(=O)N[C@@H](CCC(=O)O)C(=O)NCC(=O)NCC(=O)N[C@@H](CCCCNC(=O)COCCOCCNC(=O)COCCOCCNC(=O)CC[C@H](NC(=O)CCCCCCCCCCCCC(=O)O)C(=O)O)C(=O)N[C@@H](CO)C(=O)N[C@@H](CO)C(=O)NCC(=O)N[C@@H](C)C(=O)N1CCC[C@H]1C(=O)N1CCC[C@H]1C(=O)N1CCC[C@H]1C(=O)N[C@@H](CO)C(N)=O [Example 44],> 966,87,92.2 ± 6.17,,> 9950,> 9950,125,90.9 ± 10.4,1.68,94.5
CC[C@H](C)[C@H](NC(=O)[C@H](CC(C)C)NC(=O)[C@](C)(Cc1ccc(O)cc1)NC(=O)[C@@H](CCC(=O)O)NC(=O)[C@@H](NC(=O)[C@H](Cc1ccccc1)NC(=O)[C@H](CCC(=O)O)NC(=O)C(C)(C)NC(=O)[C@H](CCC(N)=O)NC(=O)[C@H](C)NC(=O)[C@H](CCCCNC(=O)COCCOCCNC(=O)COCCOCCNC(=O)CC[C@H](NC(=O)CCCCCCCCCCCCC(=O)O)C(=O)O)NC(=O)[C@H](CCCN)NC(=O)[C@H](CC(=O)O)NC(=O)[C@H](CC(C)C)NC(=O)[C@](C)(CC(C)C)NC(=O)[C@@H](NC(=O)[C@H](CO)NC(=O)[C@H](Cc1ccncc1)NC(=O)[C@H](CC(=O)O)NC(=O)[C@H](CO)NC(=O)[C@@H](NC(=O)[C@](C)(Cc1ccccc1F)NC(=O)[C@@H](NC(=O)CNC(=O)[C@H](CCC(=O)O)NC(=O)C(C)(C)NC(=O)[C@@H](N)Cc1ccc(O)cc1)[C@@H](C)O)[C@@H](C)O)[C@@H](C)CC)[C@@H](C)CC)C(=O)N[C@@H](CCCCNC(=O)COCCOCCNC(=O)COCCOCCNC(=O)CC[C@H](NC(=O)CCCCCCCCCCCCC(=O)O)C(=O)O)C(=O)NCC(=O)NCC(=O)N1CCC[C@H]1C(=O)N[C@@H](CO)C(=O)N[C@@H](CO)C(=O)NCC(=O)N[C@@H](C)C(=O)N1CCC[C@H]1C(=O)N1CCC[C@H]1C(=O)N1CCC[C@H]1C(=O)N[C@@H](CO)C(N)=O [Example 17],> 966,88.9 ± 2.36,97.5 ± 5.04,0.0129,> 9950,> 9950,48.9,,0.605,
CC[C@H](C)[C@H](NC(=O)[C@H](CCCN)NC(=O)[C@H](CC(=O)O)NC(=O)[C@H](CC(C)C)NC(=O)[C@](C)(CC(C)C)NC(=O)[C@@H](NC(=O)[C@H](CO)NC(=O)[C@H](Cc1ccncc1)NC(=O)[C@H](CC(=O)O)NC(=O)[C@H](CO)NC(=O)[C@@H](NC(=O)[C@](C)(Cc1ccccc1F)NC(=O)[C@@H](NC(=O)CNC(=O)[C@H](CCC(=O)O)NC(=O)C(C)(C)NC(=O)[C@@H](N)Cc1ccc(O)cc1)[C@@H](C)O)[C@@H](C)O)[C@@H](C)CC)C(=O)N[C@@H](C)C(=O)N[C@@H](CCC(N)=O)C(=O)NC(C)(C)C(=O)N[C@@H](CCC(=O)O)C(=O)N[C@@H](Cc1ccccc1)C(=O)N[C@H](C(=O)N[C@H](CCC(=O)O)C(=O)N[C@@](C)(Cc1ccc(O)cc1)C(=O)N[C@@H](CC(C)C)C(=O)N[C@H](C(=O)N[C@@H](CCCCNC(=O)COCCOCCNC(=O)COCCOCCNC(=O)CC[C@H](NC(=O)CCCCCCCCCCCCC(=O)O)C(=O)O)C(=O)NCC(=O)NCC(=O)N[C@@H](CCCCNC(=O)COCCOCCNC(=O)COCCOCCNC(=O)CC[C@H](NC(=O)CCCCCCCCCCCCC(=O)O)C(=O)O)C(=O)N[C@@H](CO)C(=O)N[C@@H](CO)C(=O)NCC(=O)N[C@@H](C)C(=O)N1CCC[C@H]1C(=O)N1CCC[C@H]1C(=O)N1CCC[C@H]1C(=O)N[C@@H](CO)C(N)=O)[C@@H](C)CC)[C@@H](C)CC [Example 20],139,90.6 ± 0.878,98.8 ± 3.19,,> 9950,> 9950,62.4,,1.66,
CC[C@H](C)[C@H](NC(=O)[C@H](CC(C)C)NC(=O)[C@](C)(Cc1ccc(O)cc1)NC(=O)[C@@H](CCC(=O)O)NC(=O)[C@@H](NC(=O)[C@H](Cc1cccc(Cl)c1)NC(=O)[C@H](CCC(=O)O)NC(=O)C(C)(C)NC(=O)[C@H](CCC(N)=O)NC(=O)[C@H](C)NC(=O)[C@H](CCCCNC(=O)COCCOCCNC(=O)COCCOCCNC(=O)CC[C@H](NC(=O)CCCCCCCCCCCCC(=O)O)C(=O)O)NC(=O)[C@H](CCCN)NC(=O)[C@H](CC(=O)O)NC(=O)[C@H](CC(C)C)NC(=O)[C@](C)(CC(C)C)NC(=O)[C@@H](NC(=O)[C@H](CO)NC(=O)[C@H](Cc1ccncc1)NC(=O)[C@H](CC(=O)O)NC(=O)[C@H](CO)NC(=O)[C@@H](NC(=O)[C@](C)(Cc1ccccc1F)NC(=O)[C@@H](NC(=O)CNC(=O)[C@H](CCC(=O)O)NC(=O)C(C)(C)NC(=O)[C@@H](N)Cc1ccc(O)cc1)[C@@H](C)O)[C@@H](C)O)[C@@H](C)CC)[C@@H](C)CC)C(=O)N[C@@H](CCC(=O)O)C(=O)NCC(=O)NCC(=O)N[C@@H](CCCCNC(=O)COCCOCCNC(=O)COCCOCCNC(=O)CC[C@H](NC(=O)CCCCCCCCCCCCC(=O)O)C(=O)O)C(=O)N[C@@H](CO)C(=O)N[C@@H](CO)C(=O)NCC(=O)N[C@@H](C)C(=O)N1CCC[C@H]1C(=O)N1CCC[C@H]1C(=O)N1CCC[C@H]1C(=O)N[C@@H](CO)C(N)=O [Example 62],> 4780,94.3 ± 0.785,96.1 ± 2.64,0.0211,> 9950,> 9950,,99.4 ± 5.83,,85.8 ± 3.31
